One experiment addresses T1, PDGF-Ra (Homo sapiens, UniProt P16234).
T1 construct: host or cells: G-292 human osteosarcoma cells
Nature of the experiment: Inhibitory activity against PDGF-Ra phosphorylation by PDGF-AA stimulation using G292. It counts as cell-based. The note with it: for IC50: > means inhibition at indicated concentration not more than 50%, < and << not less than 50%, read-out: PDGF (E) IC50; for inhibition at 0.1 µM: G292, read-out: PDGF (E) inhibition (%) at 100 nM. An outline of the steps: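 In G-292 osteosarcoma cells kept overnight in 0.1% FBS, compound exposure (1 hr, 37 °C) preceded PDGF-AA stimulation at 50 ng/ml for 5 min; receptor phosphotyrosine was then detected by PY-20 capture ELISA.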

The target of the next experiment is T2, c-kit (Homo sapiens, UniProt P10721).
T2 construct: MO7e (human megakaryocytic leukemia cell line) which had been arrested for 20 hr; endogenous in cells; host or cells: MO7e human megakaryocytic leukemia cell line
T2 sequence (P10721 26-976): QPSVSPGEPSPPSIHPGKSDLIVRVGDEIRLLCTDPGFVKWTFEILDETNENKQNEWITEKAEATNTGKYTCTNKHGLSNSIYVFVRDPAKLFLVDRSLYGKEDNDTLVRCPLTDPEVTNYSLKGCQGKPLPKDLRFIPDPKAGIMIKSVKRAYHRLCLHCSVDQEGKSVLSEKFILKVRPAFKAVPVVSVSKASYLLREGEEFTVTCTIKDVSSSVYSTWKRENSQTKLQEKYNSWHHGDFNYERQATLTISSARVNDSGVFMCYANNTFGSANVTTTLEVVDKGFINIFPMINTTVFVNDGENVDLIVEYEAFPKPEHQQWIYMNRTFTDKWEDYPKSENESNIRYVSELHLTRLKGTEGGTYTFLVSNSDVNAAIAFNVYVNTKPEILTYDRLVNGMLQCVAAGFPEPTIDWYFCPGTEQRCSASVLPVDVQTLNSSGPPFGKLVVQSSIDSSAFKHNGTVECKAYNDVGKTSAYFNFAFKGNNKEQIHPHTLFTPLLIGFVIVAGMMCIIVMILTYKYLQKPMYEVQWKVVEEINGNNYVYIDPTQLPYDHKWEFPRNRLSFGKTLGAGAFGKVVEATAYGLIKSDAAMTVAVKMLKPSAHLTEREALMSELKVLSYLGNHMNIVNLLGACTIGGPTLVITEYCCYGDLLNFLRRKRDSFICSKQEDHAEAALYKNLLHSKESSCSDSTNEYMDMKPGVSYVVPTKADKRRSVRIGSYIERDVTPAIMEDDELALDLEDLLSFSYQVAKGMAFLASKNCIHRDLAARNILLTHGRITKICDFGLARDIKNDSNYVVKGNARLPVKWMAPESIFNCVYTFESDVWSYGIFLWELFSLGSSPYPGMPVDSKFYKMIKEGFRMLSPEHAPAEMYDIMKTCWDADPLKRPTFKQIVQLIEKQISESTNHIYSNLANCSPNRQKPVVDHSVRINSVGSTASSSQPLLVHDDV
Kind of experiment: Inhibitory activity against c-kit autophosphorylation (MO7e cells, h-SCF). In kind it is cell-based. Particulars: for inhibition at 1 µM: Mo7e, figure within parentheses in −( ) or >1000( ), at 1000 nM; for IC50: MO7e cells, 50 ng/ml h-SCF, read-out: c-kit IC50. The method in brief:
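Growth-arrested (20 hr) MO7e; cpd in DMSO, 1 hr; h-SCF 50 ng/ml, 5 min; lyse. ELISA: anti-pTyr (PY-20) capture, anti-c-kit 1° Ab, HRP anti-rabbit 2° Ab, A450.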

Where [1] appears, read: figure within parentheses in >100( ), at 100 nM.

Some results are limits rather than exact numbers.

T1 sequence (P16234 24-1089): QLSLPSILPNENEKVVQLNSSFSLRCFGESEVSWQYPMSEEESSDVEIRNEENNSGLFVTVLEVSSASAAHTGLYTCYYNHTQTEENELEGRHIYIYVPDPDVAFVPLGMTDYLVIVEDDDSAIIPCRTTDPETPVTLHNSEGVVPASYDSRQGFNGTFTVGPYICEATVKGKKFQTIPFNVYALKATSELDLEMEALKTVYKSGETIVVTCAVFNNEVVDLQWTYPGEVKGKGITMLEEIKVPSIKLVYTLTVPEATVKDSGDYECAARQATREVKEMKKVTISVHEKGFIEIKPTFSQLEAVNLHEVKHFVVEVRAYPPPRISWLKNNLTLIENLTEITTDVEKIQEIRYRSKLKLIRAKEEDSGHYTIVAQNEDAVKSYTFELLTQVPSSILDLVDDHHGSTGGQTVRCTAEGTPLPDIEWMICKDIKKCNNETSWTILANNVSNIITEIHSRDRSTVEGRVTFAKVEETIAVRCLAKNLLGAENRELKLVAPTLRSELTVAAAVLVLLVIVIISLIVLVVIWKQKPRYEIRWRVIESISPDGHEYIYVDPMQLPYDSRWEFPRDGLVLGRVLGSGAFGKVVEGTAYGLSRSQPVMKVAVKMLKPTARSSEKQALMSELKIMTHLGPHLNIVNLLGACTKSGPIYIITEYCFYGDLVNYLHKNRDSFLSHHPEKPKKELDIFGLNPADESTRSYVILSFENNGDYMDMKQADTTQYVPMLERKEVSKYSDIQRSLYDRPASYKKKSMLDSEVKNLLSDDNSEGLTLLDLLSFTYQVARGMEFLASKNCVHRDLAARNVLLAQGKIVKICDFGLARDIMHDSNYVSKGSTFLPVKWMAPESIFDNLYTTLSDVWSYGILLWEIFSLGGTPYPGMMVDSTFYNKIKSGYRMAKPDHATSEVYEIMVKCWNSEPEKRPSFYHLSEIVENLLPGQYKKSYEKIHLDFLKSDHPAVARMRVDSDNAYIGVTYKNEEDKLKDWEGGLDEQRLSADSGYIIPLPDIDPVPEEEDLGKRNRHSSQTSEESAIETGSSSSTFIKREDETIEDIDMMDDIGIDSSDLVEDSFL

The IC50 is the concentration that gives 50% inhibition. In general, inhibition refers to the share of the control response that was lost under treatment. In the case of `COc1ccccc1COC(=O)N(C)c1ccc(Oc2ncnc3cc(OC)c(OC)cc23)cc1Cl` [Example 478, 2-Methoxybenzyl N-{2-chloro-4-[(6,7-dimethoxy-4-quinazolinyl)oxy]phenyl}-N-methylcarbamate], the 50% inhibitory concentration (IC50) on PDGF-Ra turned out to be 17 nM. The inhibition at 1 µM on c-kit is 28%.

In the case of `COc1cc2ncnc(Oc3ccc(N(C)C(=O)OCc4ccccc4C)c(Cl)c3)c2cc1OC` [Example 479, 2-Methylbenzyl N-{2-chloro-4-[(6,7-dimethoxy-4-quinazolinyl)oxy]phenyl}-N-methylcarbamate], at PDGF-Ra, the half-maximal inhibitory concentration (IC50) is 13 nM. Besides, the inhibition at 1 µM on c-kit stood at 17%.

With `COc1cc2ncnc(Oc3ccc(N(C)C(=O)OCc4ccccc4Cl)c(Cl)c3)c2cc1OC` [Example 480, 2-Chlorobenzyl N-{2-chloro-4-[(6,7-dimethoxy-4-quinazolinyl)oxy]phenyl}-N-methylcarbamate], the IC50 on PDGF-Ra amounted to 10 nM. For the same molecule, the inhibition at 1 µM at c-kit is 22%.

On to `CCCC(CCC)OC(=O)N(C)c1ccc(Oc2ncnc3cc(OC)c(OC)cc23)cc1Cl` [Example 481, 1-Propylbutyl N-{2-chloro-4-[(6,7-dimethoxy-4-quinazolinyl)oxy]phenyl}-N-methylcarbamate], for which the half-inhibitory concentration (IC50) on PDGF-Ra is 16 nM. Moreover, on c-kit, the inhibition at 1 µM worked out at 3%.

In the case of `COc1cc2ncnc(Oc3ccc(N(C)C(=O)OC4CCCCCC4)c(Cl)c3)c2cc1OC` [Example 482, Cycloheptyl N-{2-chloro-4-[(6,7-dimethoxy-4-quinazolinyl)oxy]phenyl}-N-methylcarbamate], the IC50 at PDGF-Ra was 24 nM. Further, the inhibition at 1 µM on c-kit came out at 5%.

As to `COc1cc2nccc(Oc3ccc(N(C)C(=O)OCC4CCCCCC4)cc3)c2cc1OC` [Example 483, Cycloheptylmethyl N-{4-[(6,7-dimethoxy-4-quinolyl)oxy]phenyl}-N-methylcarbamate], the half-maximal inhibitory concentration (IC50) at PDGF-Ra is 20 nM; on c-kit, less than 30 nM.

In the case of `COc1cc2ncnc(Oc3ccc(N(C)C(=O)OCC4CCCCCC4)cc3)c2cc1OC` [Example 484], the 50% inhibitory concentration (IC50) on PDGF-Ra was determined as 12 nM; on c-kit, 75 nM.

Take `CCN(C(=O)OC1CCCCCC1)c1ccc(Oc2ncnc3cc(OC)c(OC)cc23)cc1Cl` [Example 489, Cycloheptyl N-{2-chloro-4-[(6,7-dimethoxy-4-quinazolinyl)oxy]phenyl}-N-ethylcarbamate]: the results for the half-inhibitory concentration (IC50) at PDGF-Ra and on c-kit were 58 nM and 637 nM, respectively.

In the case of `COc1ccccc1COC(=O)N(C)c1ccc(Oc2ncnc3cc(OC)c(OC)cc23)cc1` [Example 490, 2-Methoxybenzyl N-{4-[(6,7-dimethoxy-4-quinazolinyl)oxy]phenyl}-N-methylcarbamate], the IC50 was determined as 21 nM on PDGF-Ra and 261 nM on c-kit.

For `COc1cc2ncnc(Oc3ccc(N(C)C(=O)OCc4ccccc4C)cc3)c2cc1OC` [Example 491, 2-Methylbenzyl N-{4-[(6,7-dimethoxy-4-quinazolinyl)oxy]phenyl}-N-methylcarbamate], the IC50 on PDGF-Ra was found to be 24 nM; on c-kit, 315 nM.

Take `COc1cc2ncnc(Oc3ccc(N(C)C(=O)OCc4ccccc4Cl)cc3)c2cc1OC` [Example 492, 2-Chlorobenzyl N-{4-[(6,7-dimethoxy-4-quinazolinyl)oxy]phenyl}-N-methylcarbamate]: the concentration for half-maximal inhibition (IC50) at PDGF-Ra turned out to be 20 nM; at c-kit, 321 nM.

In the case of `COc1cc2ncnc(Oc3ccc(N(C)C(=O)OC4CCCCCC4)cc3)c2cc1OC` [Example 494, Cycloheptyl N-{4-[(6,7-dimethoxy-4-quinazolinyl)oxy]phenyl}-N-methylcarbamate], the results for the half-inhibitory concentration (IC50) at PDGF-Ra and on c-kit were 16 nM and 125 nM, respectively.

On to `C#CCC(CC)OC(=O)N(C)c1ccc(Oc2ccnc3cc(OC)c(OC)cc23)cc1` (stereo not shown) [Example 496, 1-Ethyl-3-butynyl N-{4-[(6,7-dimethoxy-4-quinolyl)oxy]phenyl}-N-methylcarbamate], for which the IC50 at PDGF-Ra came to 45 nM. Further, the inhibition at 1 µM at c-kit turned out to be 32%.

Consider `COc1cc(Oc2ncnc3cc(OC)c(OC)cc23)ccc1NC(=O)OC1CCCCC1` [Example 497, Cyclohexyl N-{4-[(6,7-dimethoxy-4-quinazolinyl)oxy]-2-methoxyphenyl}carbamate], for which the concentration for half-maximal inhibition (IC50) at PDGF-Ra is less than 10 nM; at c-kit, 82 nM.

As for `COc1cc(Oc2ncnc3cc(OC)c(OC)cc23)ccc1NC(=O)OC1CCCCCC1` [Example 498, Cycloheptyl N-{4-[(6,7-dimethoxy-4-quinazolinyl)oxy]-2-methoxyphenyl}carbamate], the IC50 was less than 10 nM on PDGF-Ra and 140 nM on c-kit.

Turning to `COc1cc(Oc2ncnc3cc(OC)c(OC)cc23)ccc1NC(=O)OCc1ccccc1Cl` [Example 499, 2-Chlorobenzyl N-{4-[(6,7-dimethoxy-4-quinazolinyl)oxy]-2-methoxyphenyl}carbamate], the 50% inhibitory concentration (IC50) is less than 10 nM at PDGF-Ra and 98 nM at c-kit.

In the case of `COc1ccccc1COC(=O)Nc1ccc(Oc2ncnc3cc(OC)c(OC)cc23)cc1OC` [Example 500, 2-Methoxybenzyl N-{4-[(6,7-dimethoxy-4-quinazolinyl)oxy]-2-methoxyphenyl}carbamate], the IC50 is 14 nM on PDGF-Ra and 199 nM at c-kit.

As for `COc1cc(Oc2ncnc3cc(OC)c(OC)cc23)ccc1NC(=O)OCCc1ccccn1` [Example 501, 2-(2-Pyridyl)ethyl N-{4-[(6,7-dimethoxy-4-quinazolinyl)oxy]-2-methoxyphenyl}carbamate], the IC50 is 11 nM on PDGF-Ra and 56 nM at c-kit.

For `COc1cc2ncnc(Oc3ccc(NC(=O)OC4CCCCC4)c([N+](=O)[O-])c3)c2cc1OC` [Example 503, Cyclohexyl N-{4-[(6,7-dimethoxy-4-quinazolinyl)oxy]-2-nitrophenyl}carbamate], the IC50 on PDGF-Ra was found to be 87 nM. In addition, the inhibition at 1 µM on c-kit turned out to be 36%.

`COc1cc2ncnc(Oc3ccc(NC(=O)OCc4ccccc4Cl)c([N+](=O)[O-])c3)c2cc1OC` [Example 504, 2-Chlorobenzyl N-{4-[(6,7-dimethoxy-4-quinazolinyl)oxy]-2-nitrophenyl}carbamate]: the 50% inhibitory concentration (IC50) at PDGF-Ra turned out to be 46 nM. Moreover, the inhibition at 1 µM at c-kit came out at 42%.

On to `COc1cc2ncnc(Oc3ccc(NC(=O)OCc4ccccc4C)c([N+](=O)[O-])c3)c2cc1OC` [Example 505, 2-Methylbenzyl N-{4-[(6,7-dimethoxy-4-quinazolinyl)oxy]-2-nitrophenyl}carbamate], for which, at PDGF-Ra, the 50% inhibitory concentration (IC50) amounted to 53 nM. In addition, at c-kit, the inhibition at 1 µM amounted to 25%.

Regarding `COc1cc2ncnc(Oc3ccc(NC(=O)OCC4CCCCCC4)c([N+](=O)[O-])c3)c2cc1OC` [Example 506, Cycloheptylmethyl N-{4-[(6,7-dimethoxy-4-quinazolinyl)oxy]-2-nitrophenyl}carbamate], the half-maximal inhibitory concentration (IC50) turned out to be 74 nM on PDGF-Ra and 369 nM on c-kit.

For the molecule `COc1cc2ncnc(Oc3ccc(NC(=O)OC4CCCCCC4)c([N+](=O)[O-])c3)c2cc1OC` [Example 507, Cycloheptyl N-{4-[(6,7-dimethoxy-4-quinazolinyl)oxy]-2-nitrophenyl}carbamate], the half-maximal inhibitory concentration (IC50) was found to be 44 nM on PDGF-Ra and 787 nM at c-kit.

As for `CCCCCCOC(=O)Nc1ccc(Oc2ncnc3cc(OC)c(OC)cc23)cc1[N+](=O)[O-]` [Example 509, Hexyl N-{4-[(6,7-dimethoxy-4-quinazolinyl)oxy]-2-nitrophenyl}carbamate], the concentration for half-maximal inhibition (IC50) at PDGF-Ra is 26 nM; at c-kit, 164 nM.

For `C#CCC(CC)OC(=O)Nc1ccc(Oc2ncnc3cc(OC)c(OC)cc23)cc1[N+](=O)[O-]` (stereo not shown) [Example 510, 1-Ethyl-3-butynyl N-{4-[(6,7-dimethoxy-4-quinazolinyl)oxy]-2-nitrophenyl}carbamate], on PDGF-Ra, the half-maximal inhibitory concentration (IC50) was more than 100 nM. Besides, the inhibition at 0.1 µM on PDGF-Ra (setting [1]) amounted to 3%. Further, the inhibition at 1 µM at c-kit was 17%.

With `CCN(CC)CCNC(=S)Nc1ccc(Oc2ccnc3cc(OC)c(OC)cc23)c(C)c1C` [Example 511, N-{4-[(6,7-Dimethoxy-4-quinolyl)oxy]-2,3-dimethylphenyl}-N′-(2-diethylaminoethyl)thiourea], the results for the IC50 on PDGF-Ra and on c-kit were 19 nM and 663 nM, respectively.

For `COc1cc2nccc(Oc3ccc(NC(=S)NC4CCN(Cc5ccccc5)CC4)c(C)c3C)c2cc1OC` [Example 513, N-{4-[(6,7-Dimethoxy-4-quinolyl)oxy]-2,3-dimethylphenyl}-N′-[4-(N-benzyl)piperidinyl]thiourea], the IC50 was more than 100 nM on PDGF-Ra and 720 nM on c-kit. Further, the “PDGF (E) inhibition (%) at 100 nM” value on PDGF-Ra (setting [1]) came out at 28%.

Consider `COc1cc2nccc(Oc3cc(C)c(NC(=S)NCCN4CCCCC4)cc3C)c2cc1OC` [Example 514], for which, on PDGF-Ra, the IC50 is more than 100 nM. Besides, the inhibition at 0.1 µM at PDGF-Ra (setting [1]) came out at 31%. The inhibition at 1 µM on c-kit amounted to 29%.

`COc1cc2nccc(Oc3cc(C)c(NC(=S)NCCNC(C)=O)cc3C)c2cc1OC` [Example 515, N-{4-[(6,7-Dimethoxy-4-quinolyl)oxy]-2,5-dimethylphenyl}-N′-(2-acetamidoethyl)thiourea]: the IC50 at PDGF-Ra was more than 100 nM. For the same molecule, the inhibition at 0.1 µM at PDGF-Ra (setting [1]) turned out to be 32%. Further, on c-kit, the inhibition at 1 µM amounted to 21%.

Take `COc1cc2ncnc(Oc3ccc(NC(=S)NCCN4CCCCC4)cc3)c2cc1OC` [Example 517, N-{4-[(6,7-Dimethoxy-4-quinazolinyl)oxy]phenyl}-N′-[2-(1-piperidinyl)ethyl]thiourea]: the concentration for half-maximal inhibition (IC50) at PDGF-Ra amounted to 38 nM. At c-kit, the inhibition at 1 µM was determined as 33%.
